# Data from ChEMBL document CHEMBL4334527, “Proline-Based Allosteric Inhibitors of Zika and Dengue Virus NS2B/NS3 Proteases” (J Med Chem, 2019).
# The source made the active and inactive calls. The rule behind the calls is not given here.
# Experiments:
# [1] = target: T1, Nonstructural protein 3 (Zika virus, UniProt A0A024AXB9); assay: Inhibition of N-terminal hexa-histidine tagged Zika virus NS2B/NS3 protease expressed in Escherichia coli BL21-Gold (DE3) using fluorogenic AMC-substituted peptide boc-GRR-7-amino-4-methylcoumarin measured every 30 secs for 10 mins by fluorometric assay
# T1 sequence (A0A024AXB9 whole entry): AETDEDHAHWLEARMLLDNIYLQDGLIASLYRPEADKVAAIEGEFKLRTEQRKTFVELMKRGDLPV
# [2] = test system: dengue virus type 2; assay: Antiviral activity against Dengue virus 2 infected in African green monkey Vero cells assessed as suppression of viral replication at 10 uM pre-incubated with cells for 1 hr before viral infection and measured after 4 days by RT-qPCR analysis; format: functional, organism-based
# [3] = test system: Zika virus; assay: Antiviral activity against Zika virus infected in African green monkey Vero cells assessed as suppression of viral replication at 10 uM pre-incubated with cells for 1 hr before viral infection and measured after 4 days by RT-qPCR analysis; format: functional, organism-based
# [4] = Inhibition of N-terminal hexa-histidine tagged Dengue virus 2 NS2B/NS3 protease I30A/L31A mutant expressed in Escherichia coli BL21-Gold (DE3) using fluorogenic AMC-substituted peptide boc-GRR-7-amino-4-methylcoumarin measured every 30 secs for 10 mins by fluorometric assay; parameters: species or system dengue virus type 2
# [5] = test system: dengue virus type 2; assay: Inhibition of N-terminal hexa-histidine tagged Dengue virus 2 NS2B/NS3 protease I30A/L31A mutant expressed in Escherichia coli BL21-Gold (DE3) at 20 uM using fluorogenic AMC-substituted peptide boc-GRR-7-amino-4-methylcoumarin measured every 30 secs for 10 mins by fluorometric assay relative to control
# [6] = test system: A549; assay: Cytotoxicity against human A549 cells assessed as reduction in cell viability up to 5 uM by Presto blue cell viability reagent based assay
# [7] = Drug level in rat liver microsomes treated with (S)-N-(5,6-Dimethoxybenzo[d]thiazol-2-yl)-1-tosylpyrrolidine-2-carboxamide assessed as compound formation in presence of NADPH generating system by LC-MS/MS analysis; format: ADME, Microsome
# [8] = Drug level in rat liver microsomes treated with (R)-N-(5,6-Dimethoxybenzo[d]thiazol-2-yl)-1-tosylpyrrolidine-2-carboxamide assessed as compound formation in presence of NADPH generating system by LC-MS/MS analysis; format: ADME, Microsome
# [9] = target: T1, Nonstructural protein 3; assay: Binding affinity to N-terminal hexa-histidine tagged Zika virus NS2B/NS3 protease expressed in Escherichia coli BL21-Gold (DE3) by microscale thermophoresis method
# [10] = test system: Zika virus; assay: Antiviral activity against Zika virus French Polynesia infected in human A549 cells assessed as reduction in viral RNA at 5 uM measured after 24 to 72 hrs post infection by RT-qPCR analysis; format: functional, organism-based
# [11] = test system: Zika virus; assay: Antiviral activity against Zika virus Uganda infected in human A549 cells assessed as reduction in viral RNA at 5 uM measured after 24 to 72 hrs post infection by RT-qPCR analysis; format: functional, organism-based
# [12] = target: Nonstructural protein 3 (Zika virus) (UniProt A0A024AXB9); assay: Inhibition of N-terminal hexa-histidine tagged Zika virus NS2B/NS3 protease expressed in Escherichia coli BL21-Gold (DE3) at 20 uM using fluorogenic AMC-substituted peptide boc-GRR-7-amino-4-methylcoumarin measured every 30 secs for 10 mins by fluorometric assay relative to control
# Nonstructural protein 3 (Zika virus), sequence (A0A024AXB9 as listed by the source): as the sequence (A0A024AXB9 whole entry) above
# [13] = test system: Zika virus; assay: Antiviral activity against Zika virus infected in African green monkey Vero cells assessed as suppression of viral replication at 3 uM pre-incubated with cells for 1 hr before viral infection and measured after 4 days by RT-qPCR analysis; format: functional, organism-based
# [14] = Drug metabolism in rat liver microsomes assessed as formation of (S)-N-(5,6-Dimethoxybenzo[d]thiazol-2-yl)-1-((4-(hydroxymethyl) phenyl) sulfonyl)pyrrolidine-2-carboxamide in presence of NADPH generating system by LC-MS/MS analysis; format: ADME, Microsome
# [15] = Drug metabolism in rat liver microsomes assessed as formation of (R)-N-(5,6-Dimethoxybenzo[d]thiazol-2-yl)-1-((4-(hydroxymethyl) phenyl) sulfonyl)pyrrolidine-2-carboxamide in presence of NADPH generating system by LC-MS/MS analysis; format: ADME, Microsome
# [16] = Drug metabolism in rat liver microsomes assessed as formation of (S)-1-Benzoyl-N-(5,6-dihydroxybenzo[d]thiazol-2-yl)pyrrolidine-2-carboxamide in presence of NADPH generating system by LC-MS/MS analysis; format: ADME, Microsome
# [17] = Drug metabolism in rat liver microsomes assessed as formation of (R)-N-(5,6-Dihydroxybenzo[d]thiazol-2-yl)-1-tosylpyrrolidine-2-carboxamide in presence of NADPH generating system by LC-MS/MS analysis; format: ADME, Microsome
# [18] = test system: dengue virus type 2; assay: Antiviral activity against Dengue virus 2 infected in African green monkey Vero cells assessed as suppression of viral replication at 3 uM pre-incubated with cells for 1 hr before viral infection and measured after 4 days by RT-qPCR analysis; format: functional, organism-based
smiles,measurement,setting,value
O=C(Nc1nc2cc(O)c(O)cc2s1)[C@@H]1CCCN1S(=O)(=O)c1ccc([N+](=O)[O-])cc1,IC50,[1],930 nM
same,Activity,[2],Active
same,Activity,[3],inactive
same,IC50,[4],8.58 µM
O=C(Nc1nc2cc(O)c(O)cc2s1)[C@@H]1CCCN1S(=O)(=O)c1ccc(-c2ccccc2)cc1,IC50,[1],3170 nM
same,IC50,[4],13.5 µM
O=C(Nc1nc2cc(O)c(O)cc2s1)[C@H]1CCCN1S(=O)(=O)c1ccc(Cl)cc1,IC50,[1],1400 nM
same,inhibition,[5],34%
O=C(Nc1nc2cc(O)c(O)cc2s1)[C@@H]1CCCN1S(=O)(=O)c1ccccc1,IC50,[1],1430 nM
same,inhibition,[5],27%
Cc1ccc(S(=O)(=O)N2CCC[C@H]2C(=O)Nc2nc3cc(O)c(O)cc3s2)cc1,Activity,[6],Non-Toxic
same,Drug uptake,[7],Active
same,IC50,[1],2320 nM
same,Drug uptake,[8],Active
same,Kd,[9],240 nM
same,Activity,[3],inactive
same,Activity,[10],inactive
same,Activity,[11],inactive
same,IC50,[4],25.2 µM
COc1cc2nc(NC(=O)C3CCCN3S(=O)(=O)c3ccc(Cl)cc3)sc2cc1OC (stereo not given),inhibition,[5],inactive
same,inhibition,[12],inactive
O=C(Nc1nc2cc(O)c(O)cc2s1)[C@H]1CCCN1C(=O)c1ccccc1,IC50,[1],940 nM
same,inhibition,[5],33%
COc1cc2nc(NC(=O)[C@H]3CCCN3S(=O)(=O)c3ccc(CO)cc3)sc2cc1OC,Drug uptake,[7],Active
same,Drug uptake,[8],Active
COc1cc2nc(NC(=O)C3CCCN3S(=O)(=O)c3ccc(C)cc3)sc2cc1OC (stereo not given),inhibition,[5],inactive
same,inhibition,[12],inactive
O=C(Nc1nc2cc(O)c(O)cc2s1)[C@H]1CCCN1S(=O)(=O)c1ccc(-c2ccccc2)cc1,IC50,[1],2470 nM
same,IC50,[4],10.9 µM
O=C(Nc1nc2cc(O)c(O)cc2s1)[C@@H]1CCCN1C(=O)c1ccccc1,IC50,[1],1550 nM
same,inhibition,[5],28%
O=C(Nc1nc2cc(O)c(O)cc2s1)[C@H]1CCCN1S(=O)(=O)c1cccc([N+](=O)[O-])c1,IC50,[1],1110 nM
same,inhibition,[5],33%
O=C(Nc1nc2cc(O)c(O)cc2s1)[C@H]1CCCN1S(=O)(=O)c1ccccc1,IC50,[1],1860 nM
same,inhibition,[5],21%
O=C(Nc1nc2cc(O)c(O)cc2s1)[C@H]1CCCN1S(=O)(=O)c1ccc(F)cc1,IC50,[1],1030 nM
same,inhibition,[5],17%
Cc1ccc(S(=O)(=O)N2CCC[C@@H]2C(=O)Nc2nc3ccc([N+](=O)[O-])cc3s2)cc1,inhibition,[5],18%
same,inhibition,[12],31%
Cc1ccc(S(=O)(=O)N2CCCC(C(=O)Nc3nc4cc(O)c(O)cc4s3)C2)cc1 (racemic),IC50,[1],4550 nM
same,inhibition,[5],34%
O=C(Nc1nc2cc(O)c(O)cc2s1)[C@@H]1CCCN1S(=O)(=O)c1cccc([N+](=O)[O-])c1,IC50,[1],1780 nM
same,inhibition,[5],25%
COc1cc2nc(NC(=O)[C@@H]3CCCN3S(=O)(=O)c3ccc(CO)cc3)sc2cc1OC,Drug uptake,[7],Active
same,Drug uptake,[8],Active
COc1ccc(S(=O)(=O)N2CCC[C@@H]2C(=O)Nc2nc3cc(OC)c(OC)cc3s2)cc1,inhibition,[5],inactive
same,inhibition,[12],inactive
Cc1ccc(S(=O)(=O)NCC(=O)Nc2nc3cc(O)c(O)cc3s2)cc1,IC50,[1],810 nM
same,IC50,[4],23 µM
CC(=O)Nc1ccc2cc(S(=O)(=O)N3CCC[C@H]3C(=O)Nc3nc4cc(O)c(O)cc4s3)ccc2c1,IC50,[1],2950 nM
same,inhibition,[5],29%
COc1ccc(S(=O)(=O)N2CCC[C@H]2C(=O)Nc2nc3cc(O)c(O)cc3s2)cc1,IC50,[1],1320 nM
same,inhibition,[5],36%
Cc1ccc(S(=O)(=O)N2CCCC[C@@H]2C(=O)Nc2nc3cc(O)c(O)cc3s2)cc1,IC50,[1],580 nM
same,IC50,[4],29 µM
Cc1ccc(S(=O)(=O)N2CCC(C(=O)Nc3nc4cc(O)c(O)cc4s3)CC2)cc1,IC50,[1],5950 nM
same,inhibition,[5],41%
Cc1ccc(S(=O)(=O)N2CCC[C@@H]2C(=O)Nc2nc3cc(O)c(O)cc3s2)cc1,Activity,[6],Non-Toxic
same,Drug uptake,[7],Active
same,IC50,[1],1320 nM
same,Drug uptake,[8],Active
same,Kd,[9],490 nM
same,Activity,[10],inactive
same,Activity,[11],inactive
same,Activity,[13],inactive
same,IC50,[4],19.7 µM
COc1ccc(S(=O)(=O)N2CCC[C@@H]2C(=O)Nc2nc3cc(O)c(O)cc3s2)cc1,IC50,[1],860 nM
same,inhibition,[5],28%
CC(=O)Nc1ccc2cc(S(=O)(=O)N3CCC[C@@H]3C(=O)Nc3nc4cc(O)c(O)cc4s3)ccc2c1,IC50,[1],1350 nM
same,inhibition,[5],18%
COc1cc2nc(NC(=O)[C@@H]3CCCN3S(=O)(=O)c3ccc(C)cc3)sc2cc1OC,Activity,[6],Non-Toxic
same,Drug metabolism,[14],Metabolite_Detected
same,Drug metabolism,[15],Metabolite_Detected
same,Drug metabolism,[16],Metabolite_Detected
same,Drug metabolism,[17],Metabolite_Detected
same,Activity,[2],Active
same,Activity,[3],inactive
same,Activity,[10],inactive
same,Activity,[11],inactive
O=C(Nc1nc2ccc([N+](=O)[O-])cc2s1)[C@H]1CCCN1C(=O)c1ccccc1,IC50,[1],21900 nM
same,IC50,[4],33.9 µM
O=C(Nc1nc2cc(O)c(O)cc2s1)[C@@H]1CCCN1S(=O)(=O)c1ccc(Cl)cc1,IC50,[1],930 nM
same,inhibition,[5],39%
COc1cc2nc(NC(=O)C3CCCN3S(=O)(=O)c3ccc([N+](=O)[O-])cc3)sc2cc1OC (stereo not given),inhibition,[5],inactive
same,inhibition,[12],inactive
Cc1ccc(S(=O)(=O)N2CCCC[C@H]2C(=O)Nc2nc3cc(O)c(O)cc3s2)cc1,IC50,[1],510 nM
same,IC50,[4],13 µM
O=C(Nc1nc2cc(O)c(O)cc2s1)C1CCCCC1,inhibition,[5],20%
same,inhibition,[12],36%
O=C(Nc1nc2ccc([N+](=O)[O-])cc2s1)[C@@H]1CCCN1C(=O)c1ccccc1,inhibition,[5],41%
same,inhibition,[12],44%
O=C(Nc1nc2cc(O)c(O)cc2s1)[C@H]1CCCN1S(=O)(=O)c1ccc([N+](=O)[O-])cc1,IC50,[1],320 nM
same,Activity,[18],Active
same,Activity,[13],inactive
same,IC50,[4],10 µM
